US11542524B2, “Elimination of proliferating cells from stem cell-derived grafts” (priority 2017, dated 2023)
Entries after “also recorded” stand apart in the source; their conditions may differ.

Assays:
[1] = system: TK-PSC (HS415 pluripotent stem cells expressing HSV-TK under the Ki67 promoter); experiment: Calcein cell viability assay, ganciclovir on TK-PSC; format: cell-based, human
Protocol: (§1) Cell Proliferation Measurement by Calcein Assay:
(§2) Cells were plated onto a 96 wells pre-coated with polyornothine+ECM (1/50). Respectively 1000 cells for pluripotent stem cells, 5000 cells for early NPC and 30000 cells for late NPC. Ganciclovir (Cemevene diluted in PBS, Roche) treatment was added the day after cell plating for PSC, 3 days later for early NPC and one week later for late NPC. Calcein (2 μM) was added for different time course of ganciclovir treatment (24H to 96H). Cell survival was measured by calcein integration after 24h of incubation in a 37° C. incubator.

[2] = system: regular PSCs (not transduced with the TK construct); experiment: Calcein cell viability assay, ganciclovir on control PSC; format: cell-based, human; conditions: concentrations of 40 μM
Protocol: as §1, §2

control neurons = experiment: Calcein cell viability assay, ganciclovir on control neurons; format: cell-based, human; conditions: concentrations up to 40 μM
Protocol: as §1, §2

TK-NPCs = experiment: Calcein cell viability assay, ganciclovir time course on TK-NPC; format: cell-based, human; conditions: 40 μM
Protocol: as §1, §2

[3] = system: TK-PSC transplanted into the striatum; experiment: Transplantation of TK-PSC into striatum and ganciclovir treatment (teratoma formation); format: in vivo, NOD/SCID mice
Protocol: (§3) FIGS. 3A-3C: Schedule of cell transplantation and ganciclovir treatment. Different transplantation and ganciclovir treatment protocols were used. (A) Schematic representation of the differentiation protocol towards DA neurons. Pluripotent stem cells were cultured as neurospheres for 1 week for midbrain orientation phase, followed by a 2 or 3 week-maturation phase. (B) Transplantation of undifferentiated pluripotent stem cells with early or late ganciclovir treatment. Early treatment: undifferentiated pluripotent stem cells were transplanted and ganciclovir (or PBS control) was applied by daily intra-peritoneal injection from day 4 to day 19 post-transplantation. Late treatment: undifferentiated pluripotent stem cells were transplanted and ganciclovir (or PBS control) was applied by daily intra-peritoneal injection from day 30 to day 45 post-transplantation. (C) Transplantation of 2 or 3 week NPC: NPC containing—neurospheres were dissociated and transplanted into mice striatum. Ganciclovir (or PBS control) treatment was given from day 4 to day 19 post-transplantation. For all protocols, animals were sacrificed 1 month after termination of ganciclovir treatment.
(§4) Stereotaxic engraftment and ganciclovir treatment:
(§5) Undifferentiated pluripotent stem cells (20000 cells/μL) and dissociated neurospheres (100.000 cells/μL) were injected in the striatum of anesthetized mice using a 27-G Hamilton syringe. Injection coordinates for lateral striatum were: bregma=0.74 mm, mediolateral=2.25 mm, dorsoventral=3.5 mm; for medial striatum: bregma=0.74 mm, mediolateral=1.4 mm, dorsoventral=2.8 mm. Mice were euthanized one month later after ganciclovir termination.
(§6) Morphological and Phenotypic Analysis of Injected Surviving Cells:
(§7) Anesthetized mice were fixed by intracardiac perfusion of 4% paraformaldehyde in phosphate-buffered saline. Immunohistochemical detection was performed on 10-μm thick free-floating cryostat sections using Alexa 488-, or 555-labeled secondary antibodies or the biotin-avidin-peroxidase complex method (Vector). The following primary antibodies were used: Nestin (rabbit polyclonal anti-human, from Chemicon, 1/400), β3-tubulin (mouse monoclonal from Sigma or rabbit polyclonal from Covance, 1/2000), Neuronal Nuclei-specific protein (NeuN, mouse monoclonal from Chemicon, 1/1000), Glial Fibrillary Acidic Protein (GFAP, rabbit polyclonal from Dako, 1/2000), Proliferating Cell Nuclear Antigen (PCNA, mouse monoclonal from Dako, 1/100), Tyrosin Hydroxylase (TH, rabbit polyclonal from millipore, 1/500), iba 1 (polyclonal rabbit from Wako, 1/500), HSV-TK (mouse monoclonal, Gentaur, 1/100), ki67 (monoclonal rabbit, Abcam, 1/100 or mouse, Chemicon, 1/100).

TK-NPC transplants = experiment: Transplantation of 2-3 week NPC neurospheres into striatum and ganciclovir treatment; format: in vivo, mice
Protocol: as §3, with “Ganciclovir (or PBS control) treatment was given from day 4 to day 19 post-transplantation.” left out
as §4, §5, §6, §7
BrdU (100 mg/kg, Millipore) was injected intraperitoneally twice daily for 3 consecutive days. Mice were sacrificed 5 days later and perfused, through the heart, with PBS and 4% paraformaldehyde in PBS. […]

[4] = system: HEK cells transfected with UL97 under the UBI promoter; experiment: Cell proliferation/viability assay, high copy number plasmid, UL97; format: cell-based
Protocol: (§8) In further experiments, cell proliferation assay was performed using different suicide gene constructs in combination with various drugs, such as acyclovir, ganciclovir, or pencilovir. In the first assay, a kinase from human cytomegalovirus (CMV), UL97, was used as a novel suicide gene. The HEK cells were transfected with a high copy number of the respective plasmids.

[5] = system: HEK cells transfected with HSV-TK plasmid; experiment: Cell proliferation/viability assay, high copy number plasmid, HSV-TK; format: cell-based
Protocol: as §8

HSV-TK-transduced cells = experiment: Cell proliferation assay, low copy number, HSV-TK; format: cell-based
Protocol: (§9) In another experiment, the cells were transduced with a low copy number of the plasmids and, thus, differences between the different nucleoside analogs could be observed. […] Ganciclovir at high concentrations is also toxic to non-transduced cells.
(§10) Finally, the cell proliferation assay was also performed with the SR39 or HSV-TK-transduced cells treated with penciclovir. […] Thus, penciclovir may be used as the prodrug with the suicide gene construct, such as HSV-TK, SR39, or UL97.

SR39-transduced cells = experiment: Cell proliferation assay, low copy number, SR39; format: cell-based
Protocol: as §9, §10

non-transduced cells = experiment: Cell proliferation assay, non-transduced cells; format: cell-based
Protocol: as §9, §10

Nc1nc(O)c2ncn(COC(CO)CO)c2n1 [ganciclovir, Ganciclovir]
time in which TK PSCs were killed ([1]; 40 μM): ≤ 4 days
sensitivity of TK PSCs to ganciclovir exposure ([1]; 96h exposure): highly sensitive
ganciclovir concentration at which loss of cells was almost complete ([1]; TK PSCs, 96h exposure): 10 µM
ganciclovir concentration at which loss of cells was observed ([1]; TK PSCs, 96h exposure): 2.5 µM
effect on regular (control) PSCs [2]: resistant; also recorded: no ganciclovir toxicity is observed
effect on control neurons (control neurons): not affected
time to complete killing of TK-NPCs (TK-NPCs; TK-NPCs after 1 week of neurosphere differentiation): 8 days
killing of TK-NPCs (TK-NPCs; TK-NPCs after 2 weeks of neurosphere differentiation): not killed
teratoma formation, early ganciclovir treatment ([3]; 15 days ganciclovir starting 4 days post-transplantation, daily intra-peritoneal injection): no observed teratomas; also recorded: absence of teratoma formation and cell proliferation
development of large tumors (graft surface), early ganciclovir treatment ([3]; PSC transplanted, early treatment): completely prevented
tumor size (graft surface), late ganciclovir treatment ([3]; PSC transplanted, late treatment): did not have any effect
human cells (HCM) remaining in graft, early ganciclovir treatment ([3]; day 4 to 19 post-transplantation, analysed one month after end of treatment): hardly any human cells left; also recorded: barely detectable
teratoma formation, late ganciclovir treatment ([3]; ganciclovir days 30-45 post-transplantation, sacrifice 30 days after end of treatment): teratoma formation in both; also recorded: no difference
size of NPC transplants (graft surface) (TK-NPC transplants; NPC derived from 2-3 weeks old neurospheres): not affected
PCNA / Ki67 staining pattern of transplants (TK-NPC transplants; NPC transplants): did not alter this pattern
neural markers of transplanted cells (beta 3 tubulin, TH, nestin) (TK-NPC transplants; immunofluorescence 7 weeks after transplantation): None of these markers were affected
graft development, PBS versus ganciclovir (TK-NPC transplants; treated on days 7-22 following transplantation, sacrifice 4 weeks after end of treatment): No difference was observed
sensitivity of UL97-transfected HEK cells [4]: showed sensitivity
sensitivity of HSV-TK-transfected HEK cells [5]: sensitivity
concentration needed to kill HSV-TK-transduced cells (HSV-TK-transduced cells): relatively low concentration
concentration needed to kill SR39-transduced cells (SR39-transduced cells): relatively low concentration
toxicity to non-transduced cells (non-transduced cells; at high concentrations): toxic

Nc1nc2c(ncn2CCC(CO)CO)c(=O)[nH]1 [penciclovir, Penciclovir]
concentration needed to kill HSV-TK-transduced cells (HSV-TK-transduced cells): relatively low concentrations
concentration needed to kill SR39-transduced cells (SR39-transduced cells): relatively low concentrations
toxicity in untransduced cells (non-transduced cells): did not show any toxicity

Nc1nc2c(ncn2COCCO)c(=O)[nH]1 [acyclovir, Acyclovir]
concentration needed to kill HSV-TK-transduced cells (HSV-TK-transduced cells): very high concentrations
concentration needed to kill SR39-transduced cells (SR39-transduced cells): very high concentrations
